# Results taken from publication PMC10266261, “A High-Throughput Approach to Identify Specific Neurotoxicants / Developmental Toxicants in Human Neuronal Cell Function Assays” (ALTEX, 2018).
# Where two headings read alike, the source gives them in different places.
# How the values were obtained:
# LUHMES cells = assay: cells; format: cell-based, human; details: for LOAEL for neurite area (lowest tested concentration with significant reduction) / classification in the NeuriTox screen: screen; for classification in the NeuriTox screen: hit = NA decreased at concentrations not affecting viability; for classification / outcome after hit confirmation or re-testing (EC50 prediction model): EC50 ratio V/NA ≥ 4 specific, < 4 cytotoxic
# Description: For the NeuriTox test (= UKN4), LUHMES (Lund human mesencephalic) cells were characterized and cultured as described in detail earlier ([Krug et al., 2013]; [Lotharius et al., 2005]; [Scholz et al., 2011]). Briefly, cells were maintained in proliferation medium (PM: AdvDMEM/F12 supplemented with 2 mM glutamine, 1x N2 supplement and 40 ng/ml fibroblast growth factor-2) in PLO/fibronectin coated flasks (50 μg/ml poly-L-ornithine (PLO) and 1 μg/ml fibronectin). For differentiation, cells were seeded at a density of 46,000 cells/cm^2 in PM. After 24 h, they were switched to differentiation medium (DM) containing AdvDMEM/F12 supplemented with 2 mM glutamine, 1x N2 supplement, 2.25 μM tetracycline, 1 mM dibutyryl 3’,5’-cyclic adenosine monophosphate (cAMP), and 2 ng/ml recombinant human glial cell derived neurotrophic factor (GDNF).
# For the NeuriTox test, LUHMES cells were differentiated for 48 h and seeded into 96 well plates at a density of 100,000 cells/cm^2 in a volume of 90 μl DM without cAMP and GDNF. Treatment was initiated applying 10 μl of a 10x concentrated treatment solution one hour after seeding. At 24 h after treatment, staining mix (SM) was applied (final concentrations: 1 μg/ml H-33342, 1 μM calcein-AM).
# (§1) Image acquisition was performed with an ArrayScan VTI HCS (high content imaging) microscope (Cellomics, Waltham, MA, USA).
# The procedure was applied as detailed earlier ([Hoelting et al., 2016]; [Stiegler et al., 2011]). After automated imaging, an algorithm was applied that identified the neuronal somata (based on identified nuclei) and subtracted the somatic area from the total neuronal area to obtain the neurite area (NA), i.e., the number of pixels per field covered by neurites. Viability analysis was performed on the same pictures using combined information from H-33342 and calcein channels. Cells with normal-sized nuclei that were calcein-positive were counted as live cells, whereas H-33342 single-positive cells were counted as dead cells. Viability (V) was expressed as percentage of live cells relative to control.
# (§2) Neurite area (NA) and viability (V) were always expressed as percentage of the DMSO control. In a first step, matched technical replicates were averaged. […] Curve fitting was performed employing a 4-parameter log-logistic function with least squares fit. The upper asymptote of the fit was forced to 100%, the lower asymptote was variable. The variation of DMSO controls was calculated from pooled values of DMSO controls over several experiments.
# For calculation of the benchmark concentration values (BMC), a benchmark response (BMR) of three standard deviations of DMSO solvent controls of all assay plates (= “3 x noise level”) was used. […] To identify specific effects on neurite outgrowth, the EC50 ratio of EC50(viability)/EC50(neurite area) was calculated. The NeuriTox test system has a specificity threshold ratio of 4, the PeriTox test system has one of 3 ([Hoelting et al., 2016]; [Krug et al., 2013]).
# If V was not affected at the highest tested concentration (HTC), then 4 x HTC was used as surrogate EC50(V) (marked with ♦; for EC25 calculation, the HTC was doubled in this case) ([Krug et al., 2013]).
# For the actual screening procedure, a defined workflow was established that contained several pre-determined decision points. All compounds were tested at 1:1000 dilutions of their stock concentration, and at subsequent 3-fold dilution levels. For most compounds, the stock was 20 mM, so that the test concentrations were 20 μM, 6.7 μM, 2.2 μM, 0.7 μM, 0.25 μM, 82 nM, 27 nM, 9 nM, 3 nM, and 1 nM. For 2,2’,4,4’,5,5’-hexabromodiphenyl-ether, chrysene, dibenz(a,h)anthracene, bis(tributyltin) oxide, benzo[g,h,i]perylene, and 2,3,7,8-tetrachlorodibenzo-p-dioxin lower stock concentrations were used.
# cardiomyocytes = details: specific = cardio-physiologic parameters affected after 30 min at three-fold lower concentration than viability and no effect on viability after 24 h; ref Sirenko et al., 2017; cited from earlier work
# [1] = tested on: immature human dorsal root ganglia neurons; assay: cells; format: cell-based; details: for classification in the PeriTox screen: three independent screen runs, up to 20 μM; for ratio EC50(V)/EC50(NA): ≥ 3 = specific hit
# Description: The PeriTox test (= UKN5) is based on cells differentiated from the H9 human embryonic stem cell (hESC) line (WA09 line), which was obtained from WiCell (Madison, WI, USA). The import of cells and the experiments were authorized under license no. 170–79-1–4-27 (Robert Koch Institute, Berlin, Germany).
# After one hour, 25 μl PDM with 4x concentrated serial dilutions of the test compounds was added to the cells. At 23 h after treatment, the cells were stained with SM and incubated for one additional hour at 37°C.
# as §1
# After automated imaging, an algorithm was applied that identified the neuronal somata (based on identified nuclei) and subtracted the somatic area from the total neuronal area to obtain the neurite area (NA), i.e., the number of pixels per field covered by neurites. […] Viability (V) was expressed as percentage of live cells relative to control.
# as §2
# For calculation of the benchmark concentration values (BMC), a benchmark response (BMR) of three standard deviations of DMSO solvent controls of all assay plates (= “3 x noise level”) was used. […] To identify specific effects on neurite outgrowth, the EC50 ratio of EC50(viability)/EC50(neurite area) was calculated.
# This method uses human immature dorsal root ganglia neurons (iDRG) that are produced from pluripotent stem cells that are still in a phase of neurite growth. Like in the NeuriTox assay, exposure to toxicants in this test is for 24 h, and readouts for viability (V) and neurite area (NA) are also conducted in a similar way (Fig. 7A).
# [2] = Homo sapiens, hit confirmation / re-testing, adjusted concentration range, 24 h, read-out: EC50(NA), neurite area
# [3] = Homo sapiens, Neuron, hit confirmation, 24 h, read-out: EC50(NA), neurite area
# [4] = Homo sapiens, Neuron, hit confirmation, V not affected at HTC: 4 x HTC used as surrogate, read-out: EC50(V), viability, surrogate marked ♦
# [5] = screen data, 24 h exposure, up to 20 μM, read-out: EC50(NA), neurite area
# [6] = screen data, 24 h exposure, up to 20 μM, read-out: EC50(V), viability
# [7] = screen data, specificity threshold 4
# [8] = Homo sapiens, 24 h, read-out: EC50(NA), neurite area
# [9] = Homo sapiens, 24 h, read-out: EC50(V), viability
# [10] = Homo sapiens, Neuron, 24 h, read-out: EC50(NA), neurite area
# [11] = Homo sapiens, Neuron, read-out: EC50(V), viability, surrogate marked ♦
compound,measurement,setting,value
CC(C)(C)C(O)(CCc1ccc(Cl)cc1)Cn1cncn1 (centres unmarked) [tebuconazole],EC50,LUHMES cells; [2],142 µM
same,EC50,"LUHMES cells; Homo sapiens, re-testing, extended concentration range, read-out: toxicity EC50",238 µM
COc1ccc2cc3[n+](cc2c1OC)CCc1cc2c(cc1-3)OCO2 [Berberine chloride],classification in the cardiotoxicity test method,cardiomyocytes,generally cytotoxic
same,EC50,[1]; [3],11.6 µM
same,EC50,[1]; [4],165 µM
same,classification in the PeriTox screen,[1],active hit compounds
same,EC50,LUHMES cells; [2],23.9 µM
same,EC50,"LUHMES cells; Homo sapiens, hit confirmation, adjusted concentration range, 24 h, read-out: EC50(V), viability",126 µM
same,LOAEL for neurite area (lowest tested concentration with significant reduction),LUHMES cells; 24 h,20 µM
same,classification in the NeuriTox screen,"LUHMES cells; up to 20 μM, 24 h",active hit compounds
C=CC(N)=O [Acrylamide],classification / outcome after hit confirmation (EC50 ratio viability/neurite area ≥ 3),[1],specific PeriTox hit
same,ratio EC50(V)/EC50(NA),[1]; hit confirmation,3.2
same,EC50,"[1]; tested at high concentration, 24 h, read-out: EC50(NA), neurite area",2300 µM
[CH3][Hg][Cl] [Methylmercury (II) chloride],classification in the PeriTox screen,[1],active hit compounds
same,EC50,LUHMES cells; [5],0.09 µM
same,EC50,LUHMES cells; [6],0.16 µM
same,ratio EC50(V)/EC50(NA),LUHMES cells; [7],1.8
CNC(=O)Oc1cccc2ccccc12 [Carbaryl],classification in the cardiotoxicity test method,cardiomyocytes,specific
same,classification in the PeriTox screen,[1],active hit compounds
same,EC50,LUHMES cells; [8],31 µM
same,EC50,LUHMES cells; [9],130 µM
same,LOAEL for neurite area (lowest tested concentration with significant reduction),LUHMES cells; 24 h,20 µM
same,classification in the NeuriTox screen,"LUHMES cells; up to 20 μM, 24 h",active hit compounds
C=C(C)[C@H]1Cc2c(ccc3c2O[C@@H]2COc4cc(OC)c(OC)cc4[C@@H]2C3=O)O1 [Rotenone],classification in the cardiotoxicity test method,cardiomyocytes,generally cytotoxic
same,EC50,[1]; [10],0.05 µM
same,EC50,[1]; [11],16.5 µM
same,ratio EC50(V)/EC50(NA),[1]; hit confirmation,330
same,classification in the PeriTox screen,[1],active hit compounds
same,EC50,LUHMES cells; [8],0.5 µM
same,EC50,"LUHMES cells; Homo sapiens, read-out: EC50(V), viability, surrogate marked ♦",40 µM
same,classification in the NeuriTox screen,"LUHMES cells; up to 20 μM, 24 h",active hit compounds
"CCCC(CCC)C(=O)O [VPA, valproic acid]",classification / outcome after hit confirmation (EC50 ratio viability/neurite area ≥ 3),[1],cytotoxic
CC(C)[C@@H]1NC(=O)[C@H](C)OC(=O)[C@@H](C(C)C)NC(=O)[C@@H](C(C)C)OC(=O)[C@H](C(C)C)NC(=O)[C@H](C)OC(=O)[C@@H](C(C)C)NC(=O)[C@@H](C(C)C)OC(=O)[C@H](C(C)C)NC(=O)[C@H](C)OC(=O)[C@@H](C(C)C)NC(=O)[C@@H](C(C)C)OC1=O [Valinomycin],classification in the cardiotoxicity test method,cardiomyocytes,generally cytotoxic
same,EC50,[1]; [10],0.003 µM
same,EC50,"[1]; Homo sapiens, Neuron, read-out: EC50(NA), neurite area",0.02 µM
same,EC50,[1]; [11],0.2 µM
same,classification in the PeriTox screen,[1],active hit compounds
same,EC50,LUHMES cells; [8],0.01 µM
same,EC50,LUHMES cells; [9],6.2 µM
same,EC50,"LUHMES cells; Homo sapiens, read-out: EC50 for reduction of neurite area",0.01 µM
same,ratio EC50(V)/EC50(NA),"LUHMES cells; hit confirmation, ≥ 4 = specific (developmental) neurotoxicant",620
same,classification by BMC ratio (BMCV/BMCNA),"LUHMES cells; screen data, threshold changed to 2",specific DNT-compounds
same,classification by BMC ratio (BMCV/BMCNA),"LUHMES cells; screen data, threshold set at 3.16",cytotoxic
same,classification in the NeuriTox screen,"LUHMES cells; up to 20 μM, 24 h",active hit compounds
Oc1c(Cl)cc(Cl)c(Cl)c1Cc1c(O)c(Cl)cc(Cl)c1Cl [Hexachlorophene],classification in the NeuriTox screen,"LUHMES cells; up to 20 μM, 24 h",cytotoxic
"Brc1ccc(Oc2ccc(Br)cc2Br)c(Br)c1 [TBDE, 2,2’,4,4’-tetrabromodiphenylether]",classification / outcome after hit confirmation or re-testing (EC50 prediction model),LUHMES cells,unspecific cytotoxicants
CCCCNC(=O)OCC#CI [Iodocarb],EC50,[1]; [3],7.8 µM
same,EC50,[1]; [4],66 µM
same,classification in the PeriTox screen,[1],active hit compounds
same,EC50,"LUHMES cells; Homo sapiens, screen data, 24 h exposure, up to 20 μM, read-out: EC50(NA), neurite area",0.9 µM
same,EC50,"LUHMES cells; Homo sapiens, screen data, 24 h exposure, up to 20 μM, read-out: EC50(V), viability",1.2 µM
same,ratio EC50(V)/EC50(NA),LUHMES cells; [7],1.3
CCN(CC)C(=S)SSC(=S)N(CC)CC [Tetraethylthiuram disulfide],EC50,LUHMES cells; [5],3.7 µM
same,EC50,LUHMES cells; [6],2.9 µM
same,ratio EC50(V)/EC50(NA),LUHMES cells; [7],0.8
"Brc1ccc(Oc2cc(Br)c(Br)cc2Br)c(Br)c1 [PBDE, 2,2’,4,4’,5’-pentabromodiphenylether]",classification / outcome after hit confirmation or re-testing (EC50 prediction model),LUHMES cells,unspecific cytotoxicants
Cl.NCCc1cc(O)c(O)cc1O [6-Hydroxydopamine hydrochloride],classification in the cardiotoxicity test method,cardiomyocytes,specific
CCC[CH2][Sn]([CH2]CCC)([CH2]CCC)[O][Sn]([CH2]CCC)([CH2]CCC)[CH2]CCC [bis(tributyltin)oxide],classification in the NeuriTox screen,"LUHMES cells; up to 20 μM, 24 h",cytotoxic
O=C1C2CC=CCC2C(=O)N1SC(Cl)(Cl)Cl (centres unmarked) [Captan],classification / outcome after hit confirmation or re-testing (EC50 prediction model),LUHMES cells,cytotoxicant with relatively low potency
O=C1N[C@@H]2C(=C[C@H](O)[C@@H](O)[C@H]2O)c2cc3c(c(O)c21)OCO3 [narciclasine],neurite area vs solvent control,"LUHMES cells; 50 nM, 24 h, positive control",significantly reduced
COc1cc2c(c(OC)c1OC)-c1ccc(OC)c(=O)cc1[C@@H](NC(C)=O)CC2 [Colchicine],classification in the PeriTox screen,[1],active hit compounds
same,LOAEL for neurite area (lowest tested concentration with significant reduction),LUHMES cells; 24 h,0.027 µM
same,classification in the NeuriTox screen,"LUHMES cells; up to 20 μM, 24 h",active hit compounds
O=P(Oc1ccccc1)(Oc1ccccc1)Oc1ccccc1 [Triphenyl phosphate],classification / outcome after hit confirmation or re-testing (EC50 prediction model),LUHMES cells,clearly non-toxic at concentrations up to 20 μM
same,EC50,"LUHMES cells; Homo sapiens, read-out: toxicity EC50",> 200 µM
"CC(C)(c1ccc(O)cc1)c1ccc(O)cc1 [BPA, bisphenol A]",classification / outcome after hit confirmation or re-testing (EC50 prediction model),LUHMES cells,no effect up to 100 μM
CC/C(=C(/CC)c1ccc(O)cc1)c1ccc(O)cc1 [Diethylstilbestrol],classification in the PeriTox screen,[1],active hit compounds
same,classification in the NeuriTox screen,"LUHMES cells; up to 20 μM, 24 h",active hit compounds
"C[n+]1ccc(-c2ccccc2)cc1.[I-] [MPP^+, 1-methyl-4-phenylpyridinium iodide]",classification / outcome after hit confirmation (EC50 ratio viability/neurite area ≥ 3),[1],not active at all
same,EC50,LUHMES cells; [2],80 µM
same,classification in the NeuriTox screen,"LUHMES cells; up to 20 μM, 24 h",active hit compounds
